# Data as given in EPA's ToxRefDB 2.
# Legend:
# rat [1] = settings: Combined chronic toxicity/carcinogenicity; fischer; Oral; Feed; dose end: 104 week; group: systemic; systemic / pathology microscopic / kidney / hemosiderosis
# dog [2] = settings: Chronic toxicity, beagle, Oral, Feed, dose end: 12 month, group: systemic
# rat [3] = settings: Subchronic oral toxicity in rodents, sprague dawley, Feed, dose end: 90 day, group: systemic
# rat [4] = settings: Subchronic oral toxicity in rodents, fischer, Feed, dose end: 13 week, group: systemic
# mouse [5] = settings: Subchronic oral toxicity in rodents, cd1, Feed, dose end: 90 day, group: systemic
# dog [6] = settings: Subchronic oral toxicity in nonrodent, beagle, Feed, dose end: 13 week, group: systemic
# mouse [7] = settings: Subchronic oral toxicity in rodents, cd1, Feed, dose end: 13 week, group: systemic
# mouse [8] = settings: Subchronic oral toxicity in rodents, cd1, Feed, dose end: 13 week, group: systemic; remark: listed apart in the source
# mouse [9] = settings: Subchronic oral toxicity in rodents, b6c3f1, Dermal, Topical, dose end: 14 week, group: systemic
# rat [10] = settings: Combined chronic toxicity/carcinogenicity, fischer, Dermal, Topical, dose end: 2 year, group: systemic
# mouse [11] = settings: Carcinogenicity; b6c3f1; Dermal; Topical; dose end: 2 year; group: systemic; systemic / pathology microscopic / skin / hyperplasia
# rat [12] = settings: Subchronic oral toxicity in rodents, fischer, Dermal, Topical, dose end: 14 week, group: systemic
# rat [13] = settings: Subchronic oral toxicity in rodents, fischer, Gavage/Intubation, dose end: 14 week, group: systemic
# mouse [14] = settings: Carcinogenicity, b6c3f1, Oral, Gavage/Intubation, dose end: 105 week, group: systemic
# mouse [15] = settings: Subchronic oral toxicity in rodents, b6c3f1, Gavage/Intubation, dose end: 14 week, group: systemic
# rat [16] = settings: Carcinogenicity, fischer, Oral, Gavage/Intubation, dose end: 104 week, group: systemic
# rat [17] = settings: Subchronic inhalation toxicity, wistar, Whole-Body, dose end: 13 week, group: systemic, systemic / pathology microscopic / lung / alveolar macrophages + systemic / in life observation / body weight / body weight
# rat [18] = settings: Subchronic inhalation toxicity, wistar, Whole-Body, dose end: 13 week, group: systemic, systemic / pathology microscopic / lung / alveolar macrophages + systemic / pathology microscopic / lung / fibrosis + systemic / pathology …
# rat [19] = settings: Subchronic inhalation toxicity, wistar, Whole-Body, dose end: 13 week, group: systemic
# rat [20] = settings: Subchronic inhalation toxicity, wistar, Whole-Body, dose end: 13 week, group: systemic, systemic / clinical chemistry / alanine aminotransferase (alt/sgpt) / alanine aminotransferase (alt/sgpt) + systemic / clinical chemistry / …
# [21] = systemic / pathology gross / gallbladder / [other] + systemic / pathology gross / gallbladder / distended + systemic / pathology microscopic…
# [22] = systemic / in life observation / body weight / body weight + systemic / in life observation / body weight / body weight gain + systemic / in…
# [23] = systemic / clinical chemistry / albumin / albumin
# [24] = systemic / organ weight / liver / absolute
# [25] = systemic / clinical chemistry / potassium / potassium
# [26] = systemic / organ weight / thymus / absolute + systemic / organ weight / thymus / relative to body weight + systemic / pathology gross / …
# [27] = systemic / organ weight / kidney / absolute + systemic / organ weight / liver / absolute + systemic / organ weight / liver / relative to …
# [28] = systemic / organ weight / kidney / absolute + systemic / organ weight / kidney / relative to body weight + systemic / pathology microscopic…
# [29] = systemic / pathology microscopic / skin / hyperplasia
# [30] = systemic / in life observation / clinical signs / skin discoloration + systemic / organ weight / liver / absolute + systemic / organ weight…
# [31] = systemic / organ weight / kidney / relative to body weight
# [32] = systemic / organ weight / kidney / relative to body weight + systemic / clinical chemistry / alanine aminotransferase (alt/sgpt) / alanine …
# [33] = systemic / pathology microscopic / kidney / glomerulonephropathy + systemic / pathology microscopic / liver / [other] + systemic / pathology…
# [34] = systemic / pathology microscopic / liver / clear cell focus + systemic / pathology microscopic / nose / degeneration + systemic / pathology …
# [35] = systemic / organ weight / liver / absolute + systemic / organ weight / liver / relative to body weight
# [36] = systemic / pathology microscopic / liver / basophilic focus + systemic / pathology microscopic / liver / fatty change + systemic / pathology…
# [37] = systemic / pathology microscopic / lung / alveolar macrophages + systemic / pathology microscopic / lung / cholesterol cleft(s) + systemic…
structure (smiles),measurement,setting,value
CCCCOC(=O)[C@@H](C)Oc1ccc(Oc2ccc(C#N)cc2F)cc1 [Cyhalofop-butyl],LEL,rat [1],3.44 mg/kg/day
same,LOAEL,rat [1],3.44 mg/kg/day
same,NEL,rat [1],0.823 mg/kg/day
same,NOAEL,rat [1],0.823 mg/kg/day
same,LEL,dog [2]; systemic / in life observation / body weight / body weight + systemic / in life observation / body weight / body weight gain,7.59 mg/kg/day
same,NEL,dog [2]; systemic / in life observation / body weight / body weight + systemic / in life observation / body weight / body weight gain + systemic / …,1.22 mg/kg/day
same,LOAEL,dog [2]; [21],> 45.9 mg/kg/day
same,NOAEL,dog [2]; [21],≥ 45.9 mg/kg/day
same,LOAEL,rat [3]; [22],800 mg/kg/day
same,NOAEL,rat [3]; [22],400 mg/kg/day
same,LEL,rat [3]; systemic / organ weight / liver / absolute + systemic / organ weight / liver / relative to body weight + systemic / pathology gross / liver…,25 mg/kg/day
same,LEL,rat [4]; [23],1.72 mg/kg/day
same,NEL,rat [4]; [23],< 1.72 mg/kg/day
same,NOAEL,rat [4]; systemic / clinical chemistry / albumin / albumin + systemic / pathology microscopic / kidney / [other] + systemic / pathology microscopic…,60.5 mg/kg/day
same,LOAEL,rat [4]; systemic / pathology microscopic / kidney / [other] + systemic / pathology microscopic / kidney / pigmentation + systemic / pathology …,190 mg/kg/day
same,LEL,mouse [5]; [24],3.6 mg/kg/day
same,NEL,mouse [5]; systemic / organ weight / liver / absolute + systemic / in life observation / clinical signs / alopecia + systemic / organ weight / liver / …,0.4 mg/kg/day
same,LOAEL,mouse [5]; systemic / pathology gross / kidney / enlarged + systemic / pathology microscopic / kidney / hypertrophy,14.1 mg/kg/day
same,NOAEL,mouse [5]; systemic / pathology gross / kidney / enlarged + systemic / pathology microscopic / kidney / hypertrophy + systemic / organ weight / kidney…,4.3 mg/kg/day
same,LEL,dog [6]; [25],3.17 mg/kg/day
same,NEL,dog [6]; [25],< 3.17 mg/kg/day
same,LOAEL,dog [6]; [26],75.2 mg/kg/day
same,NOAEL,dog [6]; [26],14.7 mg/kg/day
same,LOAEL,mouse [7]; [27],> 350 mg/kg/day
same,NOAEL,mouse [7]; [27],≥ 350 mg/kg/day
same,LEL,mouse [7]; systemic / pathology gross / liver / foci,3 mg/kg/day
same,NEL,mouse [7]; systemic / pathology gross / liver / foci + systemic / clinical chemistry / alkaline phosphatase (alp/alk) / alkaline phosphatase (alp/alk…,1 mg/kg/day
same,LOAEL,mouse [8]; [28],30 mg/kg/day
same,NOAEL,mouse [8]; [28],10 mg/kg/day
same,LEL,mouse [8]; systemic / organ weight / liver / relative to body weight,3 mg/kg/day
same,NEL,mouse [8]; systemic / pathology microscopic / liver / inflammation + systemic / pathology microscopic / liver / necrosis + systemic / organ weight / …,1 mg/kg/day
Cc1ccc(S(=O)(=O)[O-])cc1C.[Na+] [Sodium xylenesulfonate],LEL,mouse [9]; [29],170 mg/kg/day
same,LOAEL,mouse [9]; [29],1300 mg/kg/day
same,NEL,mouse [9]; [29],60 mg/kg/day
same,NOAEL,mouse [9]; systemic / pathology microscopic / skin / hyperplasia + systemic / in life observation / body weight / body weight gain,440 mg/kg/day
same,LEL,rat [10]; [29],60 mg/kg/day
same,LOAEL,rat [10]; [29],120 mg/kg/day
same,NEL,rat [10]; [29],< 60 mg/kg/day
same,NOAEL,rat [10]; systemic / pathology microscopic / skin / hyperplasia + systemic / in life observation / clinical signs / [other],60 mg/kg/day
same,LEL,mouse [11],364 mg/kg/day
same,LOAEL,mouse [11],364 mg/kg/day
same,NEL,mouse [11],182 mg/kg/day
same,NOAEL,mouse [11],182 mg/kg/day
same,NEL,rat [12]; systemic / in life observation / clinical signs / skin discoloration,800 mg/kg/day
same,LOAEL,rat [12]; [30],> 500 mg/kg/day
same,NOAEL,rat [12]; [30],≥ 500 mg/kg/day
CC(C)=C1CC[C@@H](C)CC1=O [R-(+)-Pulegone],LEL,rat [13]; [31],9.38 mg/kg/day
same,NEL,rat [13]; [31],< 9.38 mg/kg/day
same,LOAEL,rat [13]; [32],> 150 mg/kg/day
same,NOAEL,rat [13]; [32],≥ 150 mg/kg/day
same,LOAEL,mouse [14]; [33],75 mg/kg/day
same,NOAEL,mouse [14]; [33],37.5 mg/kg/day
same,LEL,mouse [14]; [34],37.5 mg/kg/day
same,NEL,mouse [14]; [34],< 37.5 mg/kg/day
same,LEL,mouse [15]; [24],18.8 mg/kg/day
same,LOAEL,mouse [15]; [35],> 150 mg/kg/day
same,NEL,mouse [15]; [35],9.38 mg/kg/day
same,NOAEL,mouse [15]; [35],≥ 150 mg/kg/day
same,LOAEL,rat [16]; systemic / pathology microscopic / kidney / glomerulonephropathy + systemic / pathology microscopic / liver / basophilic focus + systemic / …,37.5 mg/kg/day
same,LEL,rat [16]; [36],18.8 mg/kg/day
same,NEL,rat [16]; [36],< 18.8 mg/kg/day
O=[Si]=O [Silica],LEL,rat [17],0.03 ppm
same,LOAEL,rat [17],> 0.03 ppm
same,NEL,rat [17],< 0.03 ppm
same,NOAEL,rat [17],≥ 0.03 ppm
same,LEL,rat [18],0.03 ppm
same,LOAEL,rat [18],> 0.03 ppm
same,NEL,rat [18],< 0.03 ppm
same,NOAEL,rat [18],≥ 0.03 ppm
same,LOAEL,rat [19]; [37],> 0.03 ppm
same,NOAEL,rat [19]; [37],≥ 0.03 ppm
same,LEL,rat [19]; systemic / pathology microscopic / lung / proliferation,0.001 ppm
same,LEL,rat [20],0.06 ppm
same,LOAEL,rat [20],> 0.06 ppm
same,NEL,rat [20],< 0.06 ppm
same,NOAEL,rat [20],≥ 0.06 ppm
